Reference: publication PMC6237158, “HPLC–UV assay for the evaluation of inhibitors of plasma amine oxidase using crude bovine plasma” (Journal of Enzyme Inhibition and Medicinal Chemistry, 2018)
Read-outs that look alike come from different tables or passages of the source.

Tests used:
PAO in bovine plasma [1] = target: T1, PAO in bovine plasma (Bos taurus, UniProt Q29437); assay: Conversion of amine substrates by bovine plasma (HPLC-UV); type: biochemical; conditions: substrate 250 µM, 6 µL bovine plasma in final volume 100 µL; mean ± SD, n = 3
T1 construct: crude bovine plasma can be used as enzyme source in this assay instead of the purified enzyme; tissue Coesfelder Fleischhandelsgesellschaft, Bernd Grewe (Coesfeld, Germany); host or cells: heparinised bovine blood plasma
T1 sequence (Q29437 17-762): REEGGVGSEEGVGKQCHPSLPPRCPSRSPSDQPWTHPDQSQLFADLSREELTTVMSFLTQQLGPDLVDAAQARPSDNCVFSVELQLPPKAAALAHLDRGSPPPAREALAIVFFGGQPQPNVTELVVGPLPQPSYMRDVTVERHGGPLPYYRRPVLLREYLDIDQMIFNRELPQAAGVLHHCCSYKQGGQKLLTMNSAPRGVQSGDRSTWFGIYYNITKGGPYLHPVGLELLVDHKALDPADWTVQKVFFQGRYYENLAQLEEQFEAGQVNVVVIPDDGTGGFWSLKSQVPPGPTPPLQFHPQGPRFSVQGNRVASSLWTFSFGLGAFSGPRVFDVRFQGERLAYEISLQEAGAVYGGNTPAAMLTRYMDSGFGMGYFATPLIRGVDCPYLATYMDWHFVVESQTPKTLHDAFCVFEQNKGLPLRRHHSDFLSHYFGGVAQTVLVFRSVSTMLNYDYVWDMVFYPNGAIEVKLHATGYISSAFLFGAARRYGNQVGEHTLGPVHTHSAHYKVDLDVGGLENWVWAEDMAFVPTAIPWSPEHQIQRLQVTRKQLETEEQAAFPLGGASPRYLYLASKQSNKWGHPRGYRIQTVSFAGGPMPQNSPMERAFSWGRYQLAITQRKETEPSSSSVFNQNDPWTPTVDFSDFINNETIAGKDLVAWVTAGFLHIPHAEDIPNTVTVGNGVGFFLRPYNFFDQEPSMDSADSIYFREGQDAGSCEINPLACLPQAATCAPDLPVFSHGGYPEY
Description: Determination of the conversion rates of different amine substrates by bovine plasma. The conversion rates of the amine substrates 1–7 to the corresponding aldehydes 8–14 by bovine plasma was measured as described previously, with the modification that the solution of the isolated PAO in PBS (0.19 mg/mL) (95 µL) was replaced by PBS (89 µL) and bovine plasma (6 µL).

purified bovine PAO [2] = target: T2, purified bovine PAO (Bos taurus, UniProt Q29437); parameters: method as in PMID 27129976, PMID 29550344; conditions: substrate 250 µM, 18 µg purified PAO in final volume 100 µL; mean ± SD, n = 3; cited from earlier work
T2 construct: bovine PAO purified from bovine plasma; purchased Abnova, Taipei, Taiwan delivered via Biozol, Eching, Germany; host or cells: bovine plasma
T2 sequence (Q29437 17-762): T1 sequence (Q29437 17-762)

purified bovine PAO [3] = target: T2, purified bovine PAO; assay: Inhibition of purified bovine PAO without pre-incubation (HPLC-UV); type: biochemical; conditions: substrate 3-(5-phenyl-2H-tetrazol-2-yl)propan-1-amine (1), n = 3
Description: Determination of the IC50-values of the PAO inhibitor 2-(4-phenylphenyl)acetohydrazide (16) with bovine plasma using different substrates. The IC50-values were measured as described previously (without pre-incubation),[33] with the modification that the solution of the isolated PAO in PBS (0.19 mg/mL) (95 µL) was replaced by PBS (89 µL) and bovine plasma (6 µL).
To evaluate the comparability of inhibition data obtained with the purified enzyme and the crude plasma, we measured the inhibition values of the known PAO inhibitor 2-(4-phenylphenyl)acetohydrazide (16) (for formula see Table 3) using the different amine substrates 1–7. In these experiments, the enzyme was added to a solution containing both substrate and inhibitor. Thus, no pre-incubation of enzyme with the inhibitor took place. […] This may be due to the binding of the inhibitor to plasma proteins leading to a somewhat reduced effective concentration. In addition, consistent differences in the apparent inhibitory potency of the inhibitor 16 in dependence of the substrate applied could be registered for both enzyme preparations. The reason for these fluctuating values lies in strongly different binding affinities of the substrates to the enzyme as discussed recently. […]

purified PAO [4] = target: T3, purified PAO (Bos taurus, UniProt Q29437); parameters: method as in PMID 29550344; conditions: after pre-incubation 15 min, read-out: IC50, purified enzyme, cited from earlier work
T3 construct: we used the enzyme isolated and purified from bovine plasma; host or cells: bovine plasma
T3 sequence (Q29437 17-762): T1 sequence (Q29437 17-762)

PAO in bovine plasma [5] = target: T1, PAO in bovine plasma; assay: Inhibitor screening without pre-incubation of bovine plasma with the inhibitor (HPLC-UV); type: biochemical; conditions: n = 3
Description: Determination of the IC50-values of the PAO inhibitor 2-(4-phenylphenyl)acetohydrazide (16) with bovine plasma using different substrates.
General procedure for inhibitor screening without pre-incubation of bovine plasma with the inhibitor. A mixture of a DMSO solution of 4 (10 mM) (2.5 µL), a DMSO solution of the appropriate inhibitor (concentration variable) (2.5 µL) and PBS buffer (pH 7.4) (89 µL) was treated with bovine plasma (6 µL). After incubation at 37 °C for 45 min, the enzyme reaction was terminated by the addition of acetonitrile (100 µL). The sample was cooled in an ice bath for 10 min and centrifuged at 12,000 × g and 10 °C for 5 min. An aliquot of the supernatant (150 µL) was diluted with aqueous TRIS buffer (100 mM, pH 8.5 at 20 °C) (150 µL), allowed to stand at room temperature for 30 min, and analysed by HPLC. The HPLC–UV-system consisted of a Thermo Scientific Dionex UltiMate 3000 system including an autosampler and a variable wavelength detector (ThermoFisher Scientific, Germering, Germany). Separation was achieved on a Luna 3 u C8(2) analytical column (3 mm inside diameter× 150 mm, particle size 3 µm) (Phenomenex, Aschaffenburg, Germany) protected with a Phenomenex Phenyl guard column (3 mm inside diameter ×4 mm). The injection volume was 50 µL. Temperature of the autosampler was set to 10 °C, the temperature of the column oven was 20 °C. HPLC analysis was run isocratically using acetonitrile/aqueous TRIS buffer (50 mM, pH 8.5 at 20 °C) (35:65, v/v) as eluent at a flow rate of 0.4 mL/min. […] Controls with DMSO (2.5 µL) instead of a DMSO solution of the inhibitor (2.5 µL) were prepared in the same manner in parallel (n = 3). Furthermore, a blank incubation, in which the enzyme solution was replaced by the buffer used for dissolving the enzyme, was carried out. The relative inhibition values were determined at different inhibitor concentrations and calculated as the ratio of the areas of the 1,3-oxazolidine 15 peaks formed in presence and absence of the test compounds (corrected by the blank value). […] The experiments using benzylamine (7) as substrate were carried out in the same way with the modifications that aliquots (150 µL) of the supernatants obtained after addition of acetonitrile and centrifugation were diluted with water (150 µL) and acetonitrile/aqueous ammonium acetate solution (10 mM, pH 6) (45:55, v/v) was used as eluent at a detection wavelength of 250 nm.

purified bovine PAO [6] = target: T2, purified bovine PAO; parameters: method as in PMID 27129976; conditions: without pre-incubation, n = 3, cited from earlier work
PAO in bovine plasma [7] = target: T1, PAO in bovine plasma; assay: Inhibitor screening with pre-incubation of bovine plasma with the inhibitor (HPLC-UV); type: biochemical; conditions: for IC50: with pre-incubation of enzyme and inhibitor (15 min, 37 °C), n = 3; for block of substrate transformation, bovine plasma: 10 µM, pre-incubation conditions
Description: General procedure for inhibitor screening with pre-incubation of bovine plasma with the inhibitor. To a DMSO solution of the appropriate inhibitor (concentration variable) (2.5 µL) was added a dilution of bovine plasma in PBS (95 µL), prepared by mixing 89 volume parts of PBS with 6 volume parts of bovine plasma. The resulting mixture was pre-incubated at 37 °C for 15 min. Then the incubation was started at 37 °C by addition of a solution of the substrate 4 (10 mM) in DMSO (2.5 µL). After 45 min, the enzyme reaction was terminated by the addition of acetonitrile (100 µL). The samples were further treated and analysed as described above in the inhibition experiments done without pre-incubation. Controls (n = 3) and a blank were prepared analogously. The experiments using benzylamine (7) as substrate were carried out in the same way with the modifications that aliquots (150 µL) of the supernatants obtained after addition of acetonitrile and centrifugation were diluted with water (150 µL), and acetonitrile/aqueous ammonium acetate solution (10 mM, pH 6) (45:55, v/v) was used as eluent at a detection wavelength of 250 nm.

purified PAO [8] = target: T3, purified PAO; assay: Inhibition of purified PAO after pre-incubation of enzyme with inhibitor; type: biochemical, bovine; conditions: 10 µM; pre-incubation conditions
Source text: 2-(4-Phenylphenyl)acetohydrazide (16) is known to inhibit PAO by forming covalent bonds with the cofactor topaquinone.
Finally, we wanted to confirm that the amine oxidases MAO A, MAO B, and DAO are not involved in substrate conversion by bovine plasma using specific inhibitorsof these enzymes.

MAO A = system: MAO A; parameters: method as in PMID 29550344; conditions: 0.1 µM; pre-incubation conditions; cited from earlier work
DAO = system: DAO; parameters: method as in PMID 29550344; conditions: 10 µM; pre-incubation conditions; cited from earlier work
[9] = substrate benzylamine (7), without pre-incubation of enzyme and inhibitor
[10] = substrate hexan-1-amine 4, without pre-incubation of enzyme and inhibitor

NCCCn1nnc(-c2ccccc2)n1 [Compound 1, 3-(5-Phenyl-2H-tetrazol-2-yl)propan-1-amine]
Conversion of substrate, Bovine plasma (PAO in bovine plasma [1]): 5 ± 0.8%
Conversion of substrate, Purified PAO (purified bovine PAO [2]): 12 ± 0.8%

NCCCCn1nnc(-c2ccccc2)n1 [Compound 2, 4-(5-Phenyl-2H-tetrazol-2-yl)butan-1-amine]
Conversion of substrate, Bovine plasma (PAO in bovine plasma [1]): 66 ± 5.6%
Conversion of substrate, Purified PAO (purified bovine PAO [2]): 55 ± 2.6%

NCCCCCn1nnc(-c2ccccc2)n1 [Compound 3, 5-(5-Phenyl-2H-tetrazol-2-yl)pentan-1-amine]
Conversion of substrate, Bovine plasma (PAO in bovine plasma [1]): 51 ± 4.3%
Conversion of substrate, Purified PAO (purified bovine PAO [2]): 45 ± 1.3%

NCCCCCCn1nnc(-c2ccccc2)n1 [Compound 4, 6-(5-Phenyl-2H-tetrazol-2-yl)hexan-1-amine]
Conversion of substrate, Bovine plasma (PAO in bovine plasma [1]): 51 ± 1.5%
Conversion of substrate, Purified PAO (purified bovine PAO [2]): 57 ± 1.4%

NCCCCCCCn1nnc(-c2ccccc2)n1 [Compound 5, 7-(5-Phenyl-2H-tetrazol-2-yl)heptan-1-amine]
Conversion of substrate, Bovine plasma (PAO in bovine plasma [1]): 23 ± 2.1%
Conversion of substrate, Purified PAO (purified bovine PAO [2]): 30 ± 1.1%

NCCCCCCCCn1nnc(-c2ccccc2)n1 [Compound 6, 8-(5-Phenyl-2H-tetrazol-2-yl)octan-1-amine]
Conversion of substrate, Bovine plasma (PAO in bovine plasma [1]): 26 ± 1.8%
Conversion of substrate, Purified PAO (purified bovine PAO [2]): 25 ± 1.2%

NCc1ccccc1 [Compound 7, Benzylamine]
Conversion of substrate, Bovine plasma (PAO in bovine plasma [1]): 30 ± 2.0%
Conversion of substrate, Purified PAO (purified bovine PAO [2]): 20 ± 2.1%

NNC(=O)Cc1ccc(-c2ccccc2)cc1 [Compound 16, 2-(4-phenylphenyl)acetohydrazide]
IC50 (purified bovine PAO [3]): 53000 ± 3000 nM
IC50 (purified PAO [4]; substrate 4): 290 nM
IC50 (purified PAO [4]; substrate benzylamine): 110 nM
IC50 (PAO in bovine plasma [5]; substrate 4-(5-phenyl-2H-tetrazol-2-yl)butan-1-amine (2), without pre-incubation): 5300 ± 490 nM
IC50 (PAO in bovine plasma [5]; substrate 5-(5-phenyl-2H-tetrazol-2-yl)pentan-1-amine (3), without pre-incubation): 9700 ± 780 nM
IC50 (PAO in bovine plasma [5]; substrate 8-(5-phenyl-2H-tetrazol-2-yl)octan-1-amine (6), without pre-incubation): 16000 ± 3400 nM
IC50 (PAO in bovine plasma [5]; [9]): 290 ± 70 nM
IC50 (PAO in bovine plasma [5]; [10]): 17000 ± 800 nM
IC50 (purified bovine PAO [6]; substrate 4-(5-phenyl-2H-tetrazol-2-yl)butan-1-amine (2)): 2500 ± 300 nM
IC50 (purified bovine PAO [6]; substrate 5-(5-phenyl-2H-tetrazol-2-yl)pentan-1-amine (3)): 5400 ± 90 nM
IC50 (purified bovine PAO [6]; substrate 6-(5-phenyl-2H-tetrazol-2-yl)hexan-1-amine (4)): 11000 ± 1200 nM
IC50 (purified bovine PAO [6]; substrate 8-(5-phenyl-2H-tetrazol-2-yl)octan-1-amine (6)): 11000 ± 850 nM
IC50 (purified bovine PAO [6]; substrate benzylamine (7)): 120 ± 30 nM
IC50 (PAO in bovine plasma [7]; substrate benzylamine): 130 ± 30 nM
IC50 (PAO in bovine plasma [7]; substrate hexan-1-amine 4): 230 ± 40 nM

NNC(=O)Cc1cccc(-c2ccccc2)c1 [Compound 18, 2-(3-Phenylphenyl)acetohydrazide]
IC50 (PAO in bovine plasma [5]; [9]): 620 ± 50 nM
IC50 (PAO in bovine plasma [5]; [10]): 20000 ± 1000 nM
IC50 (PAO in bovine plasma [7]; substrate benzylamine): 240 ± 30 nM
IC50 (PAO in bovine plasma [7]; substrate hexan-1-amine 4): 380 ± 20 nM

C#CCN(C)CCCOc1ccc(Cl)cc1Cl [clorgiline]
block of substrate transformation, purified PAO (purified PAO [8]): neither of these compounds blocked the substrate transformation
reduction of MAO A activity (MAO A): more than 95%
block of substrate transformation, bovine plasma (PAO in bovine plasma [7]): neither of these compounds blocked the substrate transformation

NC(=Nc1ccccc1)NC(=O)c1nc(Cl)c(N)nc1N [phenamil]
block of substrate transformation, purified PAO (purified PAO [8]): neither of these compounds blocked the substrate transformation
inhibition of DAO (DAO): 43%
block of substrate transformation, bovine plasma (PAO in bovine plasma [7]): neither of these compounds blocked the substrate transformation

C#CCN(C)[C@H](C)Cc1ccccc1 [selegiline]
block of substrate transformation, purified PAO (purified PAO [8]): neither of these compounds blocked the substrate transformation
block of substrate transformation, bovine plasma (PAO in bovine plasma [7]): neither of these compounds blocked the substrate transformation
